Biological target: Angiotensin-converting enzyme (Cavia porcellus)
Assay: Concentration required for 50% inhibition of Angiotensin I converting enzyme

IC50 [nM]	SMILES
12	O=C(NC(Cc1ccccc1)C(=O)CSCC(=O)N1CCC[C@@H]1C(=O)O)c1ccccc1 (stereo not given in full)
22000	Cc1ccc(S(=O)(=O)N(CC(=O)C(Cc2ccccc2)NC(=O)c2ccccc2)CC(=O)N2CCC[C@@H]2C(=O)O)cc1 (stereo not given in full)
42	O=C(NC(Cc1ccccc1)C(=O)CCCC(=O)N1CCC[C@@H]1C(=O)O)c1ccccc1 (stereo not given in full)
960	O=C(NC(Cc1ccccc1)C(=O)CNCC(=O)N1CCC[C@@H]1C(=O)O)c1ccccc1 (stereo not given in full)

SMILES	IC50 [nM]
O=C(NC(Cc1ccccc1)C(=O)COCC(=O)N1CCC[C@@H]1C(=O)O)c1ccccc1 (stereo not given in full)	4.4
